Test results published in patent publication US11000033B2, “Ketone or oxime compound, and herbicide” (NISSAN CHEMICAL CORPORATION, priority 2014, dated 2021).

Legend:
Assay type in all cases: in vivo
[1] = system: Echinochloa oryzacola Vasing.; assay: Test Example 1: herbicidal activity, application before weed generation in submerged conditions (symbol A); conditions: application herbicide amount 320 g/ha
In short: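 Greenhouse growth at 25–30 °C lasted 3 weeks after treatment, when each weed was graded 0–5 by herbicidal ratio. Treatment was a diluted emulsion applied to the water surface of 4 cm-submerged alluvial soil on the sowing day.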

[2] = system: transplanted rice plant; assay: Test Example 1: effect on crop, application before weed generation in submerged conditions (symbol a); conditions: application herbicide amount 320 g/ha
In short: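 Rice at 2.5 leaf stage transplanted into submerged soil (4 cm depth) sown with three weed species; herbicide applied before weed emergence.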

[3] = system: Scirpus juncoides; assay: Test Example 2: herbicidal activity, application during weed generation in submerged conditions (symbol B); conditions: Table 23; application herbicide amount 320 g/ha; grade 0-5 by criteria of Test Example 1
In short: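 Scoring of herbicidal effect took place 3 weeks after treatment, using the criteria of the earlier test. Treatment was water-surface application of diluted emulsifiable compound at a set dose. Plants were at one- to two-leaf stage in submerged alluvial soil (4 cm depth), greenhouse 25-30° C.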

[4] = system: Echinochloa crus-galli var. crus-galli; assay: Test Example 3: herbicidal effect by foliage application, Wagner pot (symbol H); conditions: application herbicide amount 320 g/ha
In short: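 Foliar spray of a water-diluted emulsion at a predetermined herbicide amount, applied to 14-day-old plants. Seedlings were raised in flooded alluvial soil (0.1–0.5 cm water) at 25–30 °C in a greenhouse. Injury was rated after 3 weeks against fixed criteria.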

[5] = system: directly sowed rice plant; assay: Test Example 3: effect on crop by foliage application, Wagner pot (symbol b); conditions: application herbicide amount 320 g/ha
In short: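 Wagner pot (1/10000 are), alluvial soil, submerged 0.1–0.5 cm; sown E. crus-galli var. crus-galli, L. chinensis, C. difformis, rice; greenhouse 25–30 °C.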

[6] = system: wheat; assay: Test Example 4: effect on crop by soil treatment (symbol e); conditions: application herbicide amount 320 g/ha
In short: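 Sterilized diluvial soil, spot sowing, ~1.5 cm soil cover; greenhouse 25–30° C.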

[7] = system: Alopecurus myosuroides; assay: Test Example 5: herbicidal effect by foliage application, plastic box (symbol J); conditions: 320 g/ha, 3 weeks after application
In short: (§1)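 Post-emergence spray; diluvial soil (sterilized), ~1.5 cm seed cover; greenhouse 25–30° C; 14-day-old plants; water-diluted emulsion at predetermined dose; visual score at 3 wk post-treatment.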

[8] = system: Amaranthus retroflexus; assay: Test Example 5: herbicidal effect by foliage application, plastic box (symbol N); conditions: 320 g/ha, 3 weeks after application
In short: as §1

[9] = system: Stellaria media; assay: Test Example 5: herbicidal effect by foliage application, plastic box (symbol P); conditions: 320 g/ha, 3 weeks after application
In short: as §1

[10] = system: corn; assay: Test Example 5: effect on crop by foliage application, plastic box (symbol c); conditions: 320 g/ha, 3 weeks after application
In short: (§2)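 Greenhouse test at 25° C. to 30° C. Seeds of crops and weeds were spot-sown in boxes of sterilized diluvial soil under roughly 1.5 cm soil cover, then grown for foliage treatment.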

[11] = system: rice plant; assay: Test Example 5: effect on crop by foliage application, plastic box (symbol b); conditions: 320 g/ha, 3 weeks after application
In short: as §2

[12] = system: wheat; assay: Test Example 5: effect on crop by foliage application, plastic box (symbol e); conditions: 320 g/ha, 3 weeks after application
In short: as §2

[13] = system: beet; assay: Test Example 5: effect on crop by foliage application, plastic box (symbol f); conditions: 320 g/ha, 3 weeks after application
In short: as §2

Row | SMILES | Herbicidal effect grade, A: Echinochloa oryzacola Vasing. [1] | Effect grade on crop, a: transplanted rice plant [2] | Herbicidal effect grade, B: Scirpus juncoides [3] | herbicidal effect on H (Echinochloa crus-galli var. crus-galli), grade 0-5 [4] | effect on crop b (directly sowed rice plant), grade 0-5 [5] | e (wheat) effect on crop grade [6] | J: Alopecurus myosuroides, herbicidal effect grade [7] | N: Amaranthus retroflexus, herbicidal effect grade [8] | P: Stellaria media, herbicidal effect grade [9] | c: corn, effect on crop grade [10] | b: directly sowed rice plant, effect on crop grade [11] | e: wheat, effect on crop grade [12] | f: beet, effect on crop grade [13]
1 | CON=C(C)CC1CC(OC(=O)C(C)(C)Oc2ccccc2Cl)=C(c2c(C)cc(C)cc2C)C1=O (stereo not drawn) [1-064] | 5 (Herbicidal ratio of 90% or more (almost completely withered)) | 4 (Herbicidal ratio of 70% or higher and lower than 90%) | 4 (Herbicidal ratio of 70% or higher and lower than 90%) | 5 (Herbicidal ratio of 90% or more (almost completely withered)) | 5 (Herbicidal ratio of 90% or more (almost completely withered)) | 3 (Herbicidal ratio of 40% or higher and lower than 70%) | 5 (Herbicidal ratio of 90% or more (almost completely withered)) | 2 (Herbicidal ratio of 20% or higher and lower than 40%) | 1 (Herbicidal ratio of 5% or higher and lower than 20%) | 5 (Herbicidal ratio of 90% or more (almost completely withered)) | 5 (Herbicidal ratio of 90% or more (almost completely withered)) | 5 (Herbicidal ratio of 90% or more (almost completely withered)) | 1 (Herbicidal ratio of 5% or higher and lower than 20%)
2 | CON=C(C)CC1CC(OC(=O)C(C)(C)Oc2cccc(Cl)c2)=C(c2c(C)cc(C)cc2C)C1=O (stereo not drawn) [1-065] | 5 (Herbicidal ratio of 90% or more (almost completely withered)) | 5 (Herbicidal ratio of 90% or more (almost completely withered)) | 5 (Herbicidal ratio of 90% or more (almost completely withered)) | 5 (Herbicidal ratio of 90% or more (almost completely withered)) | 5 (Herbicidal ratio of 90% or more (almost completely withered)) | 4 (Herbicidal ratio of 70% or higher and lower than 90%) | 5 (Herbicidal ratio of 90% or more (almost completely withered)) | 2 (Herbicidal ratio of 20% or higher and lower than 40%) | 0 (Herbicidal ratio of 5% or lower (almost no effect)) | 5 (Herbicidal ratio of 90% or more (almost completely withered)) | 5 (Herbicidal ratio of 90% or more (almost completely withered)) | 5 (Herbicidal ratio of 90% or more (almost completely withered)) | 0 (Herbicidal ratio of 5% or lower (almost no effect))
3 | CCC(C)C(CC1CC(O)=C(c2c(C)cc(C)cc2C)C1=O)=NOC (stereo not drawn) [1-066] | 4 (Herbicidal ratio of 70% or higher and lower than 90%) | 5 (Herbicidal ratio of 90% or more (almost completely withered)) | 0 (Herbicidal ratio of 5% or lower (almost no effect)) | 5 (Herbicidal ratio of 90% or more (almost completely withered)) | 5 (Herbicidal ratio of 90% or more (almost completely withered)) | 0 (Herbicidal ratio of 5% or lower (almost no effect)) | 5 (Herbicidal ratio of 90% or more (almost completely withered)) | 0 (Herbicidal ratio of 5% or lower (almost no effect)) | 0 (Herbicidal ratio of 5% or lower (almost no effect)) | 4 (Herbicidal ratio of 70% or higher and lower than 90%) | 5 (Herbicidal ratio of 90% or more (almost completely withered)) | 0 (Herbicidal ratio of 5% or lower (almost no effect)) | 0 (Herbicidal ratio of 5% or lower (almost no effect))
4 | CON=C(C)CC1CC(OC(=O)COc2ccccc2OC)=C(c2c(C)cc(C)cc2C)C1=O (stereo not drawn) [1-067] | 5 (Herbicidal ratio of 90% or more (almost completely withered)) | 5 (Herbicidal ratio of 90% or more (almost completely withered)) | 4 (Herbicidal ratio of 70% or higher and lower than 90%) | 5 (Herbicidal ratio of 90% or more (almost completely withered)) | 5 (Herbicidal ratio of 90% or more (almost completely withered)) | 5 (Herbicidal ratio of 90% or more (almost completely withered)) | 5 (Herbicidal ratio of 90% or more (almost completely withered)) | 4 (Herbicidal ratio of 70% or higher and lower than 90%) | 3 (Herbicidal ratio of 40% or higher and lower than 70%) | 5 (Herbicidal ratio of 90% or more (almost completely withered)) | 5 (Herbicidal ratio of 90% or more (almost completely withered)) | 5 (Herbicidal ratio of 90% or more (almost completely withered)) | 1 (Herbicidal ratio of 5% or higher and lower than 20%)
5 | CON=C(C)CC1CC(OC(=O)COc2cccc(OC)c2)=C(c2c(C)cc(C)cc2C)C1=O (stereo not drawn) [1-068] | 5 (Herbicidal ratio of 90% or more (almost completely withered)) | 5 (Herbicidal ratio of 90% or more (almost completely withered)) | 5 (Herbicidal ratio of 90% or more (almost completely withered)) | 5 (Herbicidal ratio of 90% or more (almost completely withered)) | 5 (Herbicidal ratio of 90% or more (almost completely withered)) | 4 (Herbicidal ratio of 70% or higher and lower than 90%) | 5 (Herbicidal ratio of 90% or more (almost completely withered)) | 4 (Herbicidal ratio of 70% or higher and lower than 90%) | 3 (Herbicidal ratio of 40% or higher and lower than 70%) | 5 (Herbicidal ratio of 90% or more (almost completely withered)) | 5 (Herbicidal ratio of 90% or more (almost completely withered)) | 5 (Herbicidal ratio of 90% or more (almost completely withered)) | 3 (Herbicidal ratio of 40% or higher and lower than 70%)
6 | CON=C(C)CC1CC(OC(=O)COc2ccc(OC)cc2)=C(c2c(C)cc(C)cc2C)C1=O (stereo not drawn) [1-069] | 5 (Herbicidal ratio of 90% or more (almost completely withered)) | 5 (Herbicidal ratio of 90% or more (almost completely withered)) | 4 (Herbicidal ratio of 70% or higher and lower than 90%) | 5 (Herbicidal ratio of 90% or more (almost completely withered)) | 5 (Herbicidal ratio of 90% or more (almost completely withered)) | 4 (Herbicidal ratio of 70% or higher and lower than 90%) | 5 (Herbicidal ratio of 90% or more (almost completely withered)) | 5 (Herbicidal ratio of 90% or more (almost completely withered)) | 3 (Herbicidal ratio of 40% or higher and lower than 70%) | 3 (Herbicidal ratio of 40% or higher and lower than 70%) | 5 (Herbicidal ratio of 90% or more (almost completely withered)) | 5 (Herbicidal ratio of 90% or more (almost completely withered)) | 1 (Herbicidal ratio of 5% or higher and lower than 20%)
